Results reported in publication PMC2854136 (Biochemistry, 2009).
Several values for one entry are separate records, joined by “and”; a condition that tells them apart may be missing. Equal entries are not always repeated. Where two headings read alike, the source gives them in different places.

Legend:
[1] = target: T1, Escherichia coli glutaminyl-tRNA synthetase (GlnRS) (Escherichia coli, UniProt P00962); type: biochemical; details: 3′-dATP versus ATP
Target sequence in this assay (P00962 2-554): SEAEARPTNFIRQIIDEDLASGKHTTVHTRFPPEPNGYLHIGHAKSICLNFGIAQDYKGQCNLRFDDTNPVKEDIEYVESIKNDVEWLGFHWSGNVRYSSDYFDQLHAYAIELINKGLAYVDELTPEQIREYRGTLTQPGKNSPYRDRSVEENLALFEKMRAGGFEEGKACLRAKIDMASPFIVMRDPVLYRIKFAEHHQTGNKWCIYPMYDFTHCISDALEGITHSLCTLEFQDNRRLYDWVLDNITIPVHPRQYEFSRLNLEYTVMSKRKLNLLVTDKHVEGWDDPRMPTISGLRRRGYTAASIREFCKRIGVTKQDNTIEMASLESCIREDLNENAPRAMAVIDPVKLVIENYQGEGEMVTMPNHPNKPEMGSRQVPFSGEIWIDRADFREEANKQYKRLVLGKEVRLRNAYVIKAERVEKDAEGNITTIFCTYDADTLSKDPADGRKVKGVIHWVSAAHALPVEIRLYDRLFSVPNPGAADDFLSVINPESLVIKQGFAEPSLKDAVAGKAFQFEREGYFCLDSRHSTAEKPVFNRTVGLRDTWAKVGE

[2] = target: T1, Escherichia coli glutaminyl-tRNA synthetase (GlnRS); type: biochemical
Target sequence in this assay (P00962 2-554): as above

[3] = target: T1, Escherichia coli glutaminyl-tRNA synthetase (GlnRS); assay: Misacylation of tRNA^Gln with glutamate; type: biochemical; details: very high glutamate concentrations, single-turnover conditions
Target sequence in this assay (P00962 whole entry): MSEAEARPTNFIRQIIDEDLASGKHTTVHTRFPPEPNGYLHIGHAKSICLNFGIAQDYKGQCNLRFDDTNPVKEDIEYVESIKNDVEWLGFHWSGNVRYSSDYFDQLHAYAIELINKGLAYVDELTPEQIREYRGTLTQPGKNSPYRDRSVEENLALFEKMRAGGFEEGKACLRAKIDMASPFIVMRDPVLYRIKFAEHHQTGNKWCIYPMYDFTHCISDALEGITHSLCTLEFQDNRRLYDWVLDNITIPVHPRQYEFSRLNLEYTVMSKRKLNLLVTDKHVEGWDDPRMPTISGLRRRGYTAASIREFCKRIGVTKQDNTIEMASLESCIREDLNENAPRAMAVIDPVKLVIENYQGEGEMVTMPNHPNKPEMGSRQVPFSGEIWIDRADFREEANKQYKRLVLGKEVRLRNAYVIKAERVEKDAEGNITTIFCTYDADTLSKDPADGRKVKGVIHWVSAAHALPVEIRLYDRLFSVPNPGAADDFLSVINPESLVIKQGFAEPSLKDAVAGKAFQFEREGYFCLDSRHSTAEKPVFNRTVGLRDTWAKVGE

[4] = target: T1, Escherichia coli glutaminyl-tRNA synthetase (GlnRS); details: wild-type GlnRS, cited from earlier work
Target sequence in this assay (P00962 2-554): as the sequence (P00962 2-554) above

| Compound | fold diminution of kobs from wild-type (ATP) reaction [1] [fold] | fold diminution of kcat from wild-type (ATP) reaction ([2]; 3′-dATP versus ATP) | fold elevation of Km (ATP/3′-dATP) from wild-type (ATP) reaction ([2]; 3′-dATP versus ATP) [fold] | fold elevation of Km (GLN) from wild-type (ATP) reaction ([2]; 3′-dATP versus ATP) [fold] | Km ([2]; read-out: Km (ATP/3′-dATP), wild-type GlnRS, Km for 3′-dATP) [µM] | kcat ([2]; wild-type GlnRS, 3′-dATP in place of ATP, 50 nM enzyme, 12.5 μM tRNA, 37 °C) [s⁻¹] | misacylation of tRNA^Gln with glutamate using 3′-dATP [3] | Km ([4]; read-out: Km (ATP/3′-dATP), Km for ATP) [µM] | kcat ([4]; ATP-mediated glutaminylation, 37 °C) [s⁻¹] |
| --- | --- | --- | --- | --- | --- | --- | --- | --- | --- |
| 3′-dATP | 47 | 70 fold and 71 fold | 2 | 16 | 410 ± 30 | 0.045 ± 0.02 | unable to detect any reaction |  |  |
| Nc1ncnc2c1ncn2[C@@H]1O[C@H](COP(=O)(O)OP(=O)(O)OP(=O)(O)O)[C@@H](O)[C@H]1O [ATP] |  |  |  |  |  |  |  | 200 ± 20 | 3.2 ± 0.5 |
